# Data taken from patent US20120115724A1, “METHOD OF CONTROLLING UNDESIRED VEGETATION” (SYNGENTA CROP PROTECTION LLC, priority 2009, published 2012).
# What was measured:
# Assay type in all cases: in vivo
# [1] = tested on: POLCO Polygonum convolvulus; experiment: Pre-emergence crop and weed test (Example 16); conditions: 125 g/ha, after 20 days
# Procedure: (§1) Seeds of crop and representative weed species were sown in standard soil in pots. After cultivation for 1 day under controlled conditions in a glasshouse (at 22/16° C., day/night; 16 hours light; 65% humidity), the plants were sprayed. The spray solution was prepared by dissolving the technical active ingredient in acetone containing 10.56 wt % Emulsogen EL, 42.22 wt % N-methylpyrrolidone and 2.22 wt % DPG-monoethyl ether to give a 5% stock solution. This was then diluted with water containing 0.2% (v/v) of the adjuvant X-77 to give the desired treatment concentration.
# (§2) The test plants were then grown on under controlled conditions in a glasshouse (at 22/16° C., day/night; 16 hours light; 65% humidity) and watered twice daily. After 20 days the test was evaluated (100=total damage to plant; 0=no damage to plant).
# (§3) Species as for Post-Emergence Test.
# [2] = tested on: AMARE Amaranthus retroflexus; experiment: Pre-emergence crop and weed test (Example 16); conditions: 125 g/ha, after 20 days
# Procedure: as §1, §2, §3
# [3] = tested on: XANST Xanthium strumarium; experiment: Pre-emergence crop and weed test (Example 16); conditions: 125 g/ha, after 20 days
# Procedure: as §1, §2, §3
# IPOHE Ipomoea hederacea [4] = experiment: Pre-emergence crop and weed test (Example 16); conditions: 125 g/ha, after 20 days
# Procedure: as §1, §2, §3
# [5] = tested on: EPHHL Euphorbia heterophylla; experiment: Pre-emergence crop and weed test (Example 16); conditions: 125 g/ha, after 20 days
# Procedure: as §1, §2, §3
# SINAR Sinapis arvensis [6] = experiment: Pre-emergence crop and weed test (Example 16); conditions: 125 g/ha, after 20 days
# Procedure: as §1, §2, §3
# GALAP Galium aparine [7] = experiment: Pre-emergence crop and weed test (Example 16); conditions: 125 g/ha, after 20 days
# Procedure: as §1, §2, §3
# GLXMA Soybean [8] = experiment: Pre-emergence crop and weed test (Example 16); conditions: 125 g/ha, after 20 days
# Procedure: as §1, §2, §3
# SIDSP Sida spinosa [9] = experiment: Pre-emergence crop and weed test (Example 16); conditions: 125 g/ha, after 20 days
# Procedure: as §1, §2, §3
# CHEAL Chenopodium album [10] = experiment: Pre-emergence crop and weed test (Example 16); conditions: 125 g/ha, after 20 days
# Procedure: as §1, §2, §3
# [11] = tested on: ABUTH Abutilon theophrasti; experiment: Pre-emergence crop and weed test (Example 16); conditions: 125 g/ha, after 20 days
# Procedure: as §1, §2, §3
# KCHSC Kochia scoparia [12] = experiment: Pre-emergence crop and weed test (Example 16); conditions: 125 g/ha, after 20 days
# Procedure: as §1, §2, §3
# [13] = tested on: POLCO Polygonum convolvulus; experiment: Post-emergence crop and weed test (Example 15); conditions: Fallopia convolvulus, 360 h, 125 g/ha, after 15 days, read-out: Percentage damage POLCO
# Summary of the method: (§4)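 Scoring: percent damage at 15 days after treatment, where 100 means total damage and 0 no damage. Treatment was a foliar spray of 14-day-old potted plants, using active ingredient diluted from a 5% acetone-based emulsifiable stock into water containing 0.2% X-77 adjuvant.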
# [14] = tested on: AMARE Amaranthus retroflexus; experiment: Post-emergence crop and weed test (Example 15); conditions: 360 h, 125 g/ha, after 15 days, read-out: Percentage damage AMARE
# Summary of the method: as §4
# [15] = tested on: XANST Xanthium strumarium; experiment: Post-emergence crop and weed test (Example 15); conditions: 360 h, 125 g/ha, after 15 days, read-out: Percentage damage XANST
# Summary of the method: as §4
# IPOHE Ipomoea hederacea [16] = experiment: Post-emergence crop and weed test (Example 15); conditions: 360 h, 125 g/ha, after 15 days, read-out: Percentage damage IPOHE
# Summary of the method: as §4
# [17] = tested on: EPHHL Euphorbia heterophylla; experiment: Post-emergence crop and weed test (Example 15); conditions: 360 h, 125 g/ha, after 15 days, read-out: Percentage damage EPHHL
# Summary of the method: as §4
# SINAR Sinapis arvensis [18] = experiment: Post-emergence crop and weed test (Example 15); conditions: Mutarda arvensis, 360 h, 125 g/ha, after 15 days, read-out: Percentage damage SINAR
# Summary of the method: as §4
# GALAP Galium aparine [19] = experiment: Post-emergence crop and weed test (Example 15); conditions: 360 h, 125 g/ha, after 15 days, read-out: Percentage damage GALAP
# Summary of the method: as §4
# GLXMA Soybean [20] = experiment: Post-emergence crop and weed test (Example 15); conditions: Glycine max, 360 h, 125 g/ha, after 15 days, read-out: Percentage damage GLXMA
# Summary of the method: as §4
# SIDSP Sida spinosa [21] = experiment: Post-emergence crop and weed test (Example 15); conditions: 360 h, 125 g/ha, after 15 days, read-out: Percentage damage SIDSP
# Summary of the method: as §4
# CHEAL Chenopodium album [22] = experiment: Post-emergence crop and weed test (Example 15); conditions: 360 h, 125 g/ha, after 15 days, read-out: Percentage damage CHEAL
# Summary of the method: as §4
# [23] = tested on: ABUTH Abutilon theophrasti; experiment: Post-emergence crop and weed test (Example 15); conditions: 360 h, 125 g/ha, after 15 days, read-out: Percentage damage ABUTH
# Summary of the method: as §4
# KCHSC Kochia scoparia [24] = experiment: Post-emergence crop and weed test (Example 15); conditions: Bassia scoparia, 360 h, 125 g/ha, after 15 days, read-out: Percentage damage KCHSC
# Summary of the method: as §4
# VERPE Veronica persica = experiment: Post-emergence crop and weed test (Example 15); conditions: 360 h, 125 g/ha, after 15 days, read-out: Percentage damage VERPE
# Summary of the method: as §4
smiles,measurement,setting,value
"COC(=O)c1nc(-c2ccc(Cl)c(OC)c2F)nc(NCc2ccco2)c1Cl [Ref. Ex. E, 5-Chloro-2-(4-chloro-2-fluoro-3-methoxyphenyl)-4-(furan-2-ylmethylamino)-6-methoxycarbonyl-pyrimidine, reference compound]",Percentage damage POLCO,[1],0%
same,Percentage damage AMARE,[2],70%
same,Percentage damage XANST,[3],20%
same,Percentage damage IPOHE,IPOHE Ipomoea hederacea [4],30%
same,Percentage damage EPHHL,[5],100%
same,Percentage damage SINAR,SINAR Sinapis arvensis [6],70%
same,Percentage damage GALAP,GALAP Galium aparine [7],90%
same,Percentage damage GLXMA,GLXMA Soybean [8],10%
same,Percentage damage SIDSP,SIDSP Sida spinosa [9],70%
same,Percentage damage CHEAL,CHEAL Chenopodium album [10],30%
same,Percentage damage ABUTH,[11],40%
same,Percentage damage KCHSC,KCHSC Kochia scoparia [12],60%
same,pest or weed control at 125 g/ha,[13],90%
same,pest or weed control at 125 g/ha,[14],100%
same,pest or weed control at 125 g/ha,[15],100%
same,pest or weed control at 125 g/ha,IPOHE Ipomoea hederacea [16],90%
same,pest or weed control at 125 g/ha,[17],100%
same,pest or weed control at 125 g/ha,SINAR Sinapis arvensis [18],90%
same,pest or weed control at 125 g/ha,GALAP Galium aparine [19],90%
same,plant injury at 125 g/ha,GLXMA Soybean [20],100%
same,pest or weed control at 125 g/ha,SIDSP Sida spinosa [21],90%
same,pest or weed control at 125 g/ha,CHEAL Chenopodium album [22],90%
same,pest or weed control at 125 g/ha,[23],100%
same,pest or weed control at 125 g/ha,KCHSC Kochia scoparia [24],90%
same,pest or weed control at 125 g/ha,VERPE Veronica persica,10%
